Series [1] deals with T1, hERG K+ channel (Homo sapiens, UniProt Q12809).
T1 construct: expressed in transfected cells; host or cells: CHO (Chinese hamster ovary)
Kind of series: hERG channel inhibition assay (patch-clamp, CHO-hERG cells). The format is cell-based. To be noted: for IC50 / IC20: CHO-hERG cells, whole-cell patch-clamp; for IC20: human, CHO cells stably expressing hERG; for hERG IC20/TLR7 IC50 / hERG IC20/TLR8 IC50 / hERG IC20/TLR9 IC50: safety ratio. How it is done:
The hERG K^+ channels were cloned in humans and stably expressed in a CHO (Chinese hamster ovary) cell line. CHOhERG cells were used for patch-clamp (voltage-clamp, whole-cell) experiments. Cells were stimulated by a voltage pattern to activate hERG channels and conduct IKhERG Currents (rapid delayed outward rectifier potassium current of the hERG channel). After the cells were stabilized for a few minutes, the amplitude and kinetics of IKhERG were recorded at a stimulation frequency of 0.1 Hz (6 bpm). Thereafter, the test compound was added to the preparation at increasing concentrations. For each concentration, an attempt was made to reach a steady-state effect, usually, this was achieved within 3-10 min at which time the next highest concentration was applied. The amplitude and kinetics of IKhERG are recorded in each concentration of the drug which were compared to the control values (taken as 100%). (references: Redfe W S, Carlsson L, Davis A S, Lynch W G, MacKenzie I, Palethorpe S, Siegl P K, Strang I, Sullivan A T, Wallis R, Camm A J, Hammond T G. 2003; Relationships between preclinical cardiac electrophysiology, clinical QT interval prolongation and torsade de pointes for a broad range of drugs: evidence for a provisional safety margin in drug development. Cardiovasc. Res. 58:32-45, Sanguinetti M C, Tristani-Firouzi M. 2006; hERG potassium channels and cardiac arrhythmia. Nature 440:463-469, Webster R, Leishman D, Walker D. 2002; Towards a drug concentration effect relationship for QT prolongation and torsades de pointes. Curr. Opin. Drug Discov. Devel. 5:116-26).

The target in series [2] is T2, TLR9 (Homo sapiens, UniProt Q9NR96).
T2 sequence (Q9NR96 26-1032): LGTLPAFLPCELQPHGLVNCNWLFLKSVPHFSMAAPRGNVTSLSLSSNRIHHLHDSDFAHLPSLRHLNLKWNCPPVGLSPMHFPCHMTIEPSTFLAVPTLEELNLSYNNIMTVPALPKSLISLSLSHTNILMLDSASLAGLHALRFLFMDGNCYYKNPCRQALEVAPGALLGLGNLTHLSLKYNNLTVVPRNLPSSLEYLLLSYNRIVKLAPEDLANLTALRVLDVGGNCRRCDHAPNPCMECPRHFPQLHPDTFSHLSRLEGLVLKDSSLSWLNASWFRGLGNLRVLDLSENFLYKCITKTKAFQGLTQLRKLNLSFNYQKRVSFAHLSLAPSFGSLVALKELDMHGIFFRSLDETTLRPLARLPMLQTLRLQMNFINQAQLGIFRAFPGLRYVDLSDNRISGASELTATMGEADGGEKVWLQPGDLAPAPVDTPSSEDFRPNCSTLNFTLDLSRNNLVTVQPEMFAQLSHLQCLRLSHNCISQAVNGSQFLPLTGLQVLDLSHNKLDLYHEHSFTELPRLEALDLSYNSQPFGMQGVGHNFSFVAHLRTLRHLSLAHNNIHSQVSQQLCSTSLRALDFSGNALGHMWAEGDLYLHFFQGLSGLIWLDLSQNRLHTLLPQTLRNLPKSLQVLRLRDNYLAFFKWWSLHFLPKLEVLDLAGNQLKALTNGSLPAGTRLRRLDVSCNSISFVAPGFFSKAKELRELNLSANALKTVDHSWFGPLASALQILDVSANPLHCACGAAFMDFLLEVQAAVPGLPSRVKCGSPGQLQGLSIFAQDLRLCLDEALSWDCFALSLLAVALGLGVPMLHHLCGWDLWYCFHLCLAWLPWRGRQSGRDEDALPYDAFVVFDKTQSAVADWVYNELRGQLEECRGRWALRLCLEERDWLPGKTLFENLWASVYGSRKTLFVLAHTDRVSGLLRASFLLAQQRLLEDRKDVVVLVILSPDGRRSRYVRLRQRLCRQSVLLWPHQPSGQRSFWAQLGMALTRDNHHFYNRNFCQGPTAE
Kind of series: Human PBMC cell-based assay. Also on record: These cells express TLR7, TLR8, or TLR9, and therefore are natural responders to respective ligand stimulation; endogenous in cells; host or cells: human PBMC from healthy donor whole blood. To be noted: CpG ODN 2216 at 1 μM, read-out: hPBMC/TLR9 IC50. The text has this:
Unlike the HEK reporter cell lines, human peripheral blood mononuclear cell (PBMC) represents primary human immune cells in blood mainly consisting of lymphocytes, monocytes, and dendritic cells. These cells express TLR7, TLR8, or TLR9, and therefore are natural responders to respective ligand stimulation. Upon activation of these TLRs, PBMCs secrete similar cytokines and chemokines in vitro and in vivo, and therefore the in vitro potency of a TLR7/8/9 antagonist in human PBMC is readily translatable to its pharmacodynamics response in vivo.
Human peripheral blood mononuclear cells (PBMC) were isolated from freshly-drawn lithium-heparinized (Lithium Heparin Plus blood Collection tube, BD Vacutainer®) healthy donor whole blood by density gradient (Ficoll-Paque™ PLUS, GE Healthcare life Sciences). Briefly, […] was diluted with 25 mL PBS (without Ca^2+, Mg^2+) in a 50 mL conical tube with porous barrier (Leucosep tube, Greiner bio-one), where 15.5 mL Ficoll-Paque was under laid after spinning. Tubes were centrifuged for 20 minutes at 800×g (1946 rpm) with the brake in the off position, and PBMC were collected from the buffy coat. Cells were then washed twice in PBS, and red blood cells were lysed by suspension in 2 mL (Red Blood Cell Lysis Buffer, Alfa Aesar) for 5-10 minutes at room temperature. After a final wash in PBS, PBMC were resuspended at a final concentration of 2×10^6 cells/mL in RPMI-1640 media with GlutaMAX™ (Gibco) supplemented with 10% Fetal Bovine Serum (Sigma) and plated at 150 μL/well (3×10^5 cells/well) in tissue culture treated round bottom 96-well plates (Corning Incorporated). Antagonist compounds (compounds of this invention) solubilized and serial diluted in 100% DMSO were added in duplicate to cells to yield a final concentration of 1% DMSO (v/v). PBMC were incubated with antagonist compounds for 30 minutes at 37° C., 5% CO2 before adding various TLR agonist reagents in 48 μL complete media per well as follows (final concentrations indicated): CpG ODN 2216 (InvivoGen) at 1 μM for TLR9, ORN 06/LyoVec (InvivoGen) at […] for TLR8 and R848 (InvivoGen) at 1 μg/mL for TLR7 and TLR8. PBMC were incubated overnight at 37° C. with 5% C02. Cell culture supernatants were collected, and levels of various human cytokines were assessed by Luminex assay (ProcartaPlex™ Multiplex Immunoassay, Invitrogen) or ELISA procedure according to the manufacturer's recommended protocol (eBioscience, ThermoFisher Scientific). Viability of the cells was also checked with Cell Viability Assay (CellTiter Glo® Luminescent Cell Viability Assay, Promega).

One may read the IC20 as the concentration at which the effect reaches the 20% level. The low end stands for an effect from little substance, the high end for a need for much substance.

T1 sequence (Q12809 whole entry): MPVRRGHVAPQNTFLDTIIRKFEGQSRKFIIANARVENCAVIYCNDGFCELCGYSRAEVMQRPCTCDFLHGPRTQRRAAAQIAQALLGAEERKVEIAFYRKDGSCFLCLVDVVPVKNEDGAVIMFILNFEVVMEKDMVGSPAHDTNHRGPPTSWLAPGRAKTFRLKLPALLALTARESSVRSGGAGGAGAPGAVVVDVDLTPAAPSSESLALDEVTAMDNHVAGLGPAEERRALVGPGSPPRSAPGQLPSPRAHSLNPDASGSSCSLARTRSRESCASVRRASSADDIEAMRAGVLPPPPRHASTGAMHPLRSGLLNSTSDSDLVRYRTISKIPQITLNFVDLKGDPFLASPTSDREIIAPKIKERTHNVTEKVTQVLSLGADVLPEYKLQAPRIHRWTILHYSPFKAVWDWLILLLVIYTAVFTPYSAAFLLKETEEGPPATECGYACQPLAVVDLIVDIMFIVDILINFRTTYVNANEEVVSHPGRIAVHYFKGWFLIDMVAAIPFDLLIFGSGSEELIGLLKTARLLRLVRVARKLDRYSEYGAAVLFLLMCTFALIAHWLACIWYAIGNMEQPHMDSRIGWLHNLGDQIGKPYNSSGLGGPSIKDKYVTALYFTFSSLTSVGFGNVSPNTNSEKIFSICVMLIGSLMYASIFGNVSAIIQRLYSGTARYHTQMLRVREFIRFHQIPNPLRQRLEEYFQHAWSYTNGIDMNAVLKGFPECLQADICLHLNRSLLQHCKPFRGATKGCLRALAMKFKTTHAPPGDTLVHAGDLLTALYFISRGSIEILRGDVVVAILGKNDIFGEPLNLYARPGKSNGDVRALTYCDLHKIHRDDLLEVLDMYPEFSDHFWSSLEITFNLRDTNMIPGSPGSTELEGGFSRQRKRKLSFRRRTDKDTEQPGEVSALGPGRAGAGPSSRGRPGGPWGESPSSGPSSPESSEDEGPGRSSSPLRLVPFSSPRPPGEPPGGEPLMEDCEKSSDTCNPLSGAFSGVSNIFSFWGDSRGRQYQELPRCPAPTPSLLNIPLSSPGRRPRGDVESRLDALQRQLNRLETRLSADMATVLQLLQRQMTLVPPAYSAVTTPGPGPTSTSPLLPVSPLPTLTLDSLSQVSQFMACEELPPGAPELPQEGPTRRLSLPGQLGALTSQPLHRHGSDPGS

Regarding `Cc1cc(N2CCC(c3ncc(N4CCNCC4)cc3C)CC2)c2cnn(C)c2n1` [Example 7, 1,6-dimethyl-4-[4-(3-methyl-5-piperazin-1-yl-2-pyridyl)-1-piperidyl]pyrazolo[3,4-b]pyridine], in series [1], the IC50 was greater than 20 µM, the IC20 turned out to be 5.1 µM, the “hERG IC20/TLR7 IC50” value is on record as 463.6 and the “hERG IC20/TLR8 IC50” value was 175.9. The “hERG IC20/TLR9 IC50” value in series [1] came to 98.1. Besides, the IC50 in series [2] was 0.42 µM.
With `CO[C@@H]1CN(c2cnc([C@@H]3CCN(c4cc(C)nc5c4cnn5C)C[C@H]3C)c(C)c2)C[C@H]1N` [Example 26, (3R,4R)-1-[6-[(3S,4R)-1-(1,6-dimethylpyrazolo[3,4-b]pyridin-4-yl)-3-methyl-4-piperidyl]-5-methyl-3-pyridyl]-4-methoxy-pyrrolidin-3-amine], in series [1], the IC50 was greater than 20 µM, the IC20 was greater than 10 µM, the “hERG IC20/TLR7 IC50” value is listed as greater than 833.3 and the “hERG IC20/TLR8 IC50” value was greater than 714.3. Further, the “hERG IC20/TLR9 IC50” value in series [1] is greater than 91.7. Also, the IC50 in series [2] came to 0.33 µM.
As for `Cc1cc(N2CC[C@@H](c3ncc(N4CCOC[C@@H](N)C4)cc3C)[C@H](C)C2)c2cnn(C)c2n1` [Example 28, (6S)-4-[6-[(3S,4R)-1-(1,6-dimethylpyrazolo[3,4-b]pyridin-4-yl)-3-methyl-4-piperidyl]-5-methyl-3-pyridyl]-1,4-oxazepan-6-amine], in series [1], the IC50 is greater than 20 µM, the IC20 came to 6.4 µM, the “hERG IC20/TLR7 IC50” value is 914.3 and the “hERG IC20/TLR8 IC50” value worked out at 3200.0. Further, the “hERG IC20/TLR9 IC50” value in series [1] was 50.8. The IC50 in series [2] was found to be 0.52 µM.
`COC[C@H]1CN(c2cnc([C@@H]3CCN(c4cc(C)nc5c4cnn5C)C[C@H]3C)c(C)c2)CCN1` [Example 29, 4-[(3S,4R)-4-[5-[(3R)-3-(methoxymethyl)piperazin-1-yl]-3-methyl-2-pyridyl]-3-methyl-1-piperidyl]-1,6-dimethyl-pyrazolo[3,4-b]pyridine]: in series [1], the IC50 is greater than 10 µM, the IC20 is 4.4 µM, the “hERG IC20/TLR7 IC50” value was found to be 880.0 and the “hERG IC20/TLR8 IC50” value is given as 550.0. Moreover, the “hERG IC20/TLR9 IC50” value in series [1] turned out to be 18.5. The IC50 in series [2] is 0.71 µM.
Consider `Cc1cc(N2CC[C@@H](c3ncc(N4CC(C)(N)C4)cc3C)[C@H](C)C2)c2cnn(C)c2n1` [Example 32, 1-[6-[(3S,4R)-1-(1,6-dimethylpyrazolo[3,4-b]pyridin-4-yl)-3-methyl-4-piperidyl]-5-methyl-3-pyridyl]-3-methyl-azetidin-3-amine], for which, in series [1], the IC50 is greater than 10 µM, the 20% effect level (IC20) was put at 4.4 µM, the “hERG IC20/TLR7 IC50” value turned out to be 550.0 and the “hERG IC20/TLR8 IC50” value is on record as 293.3. In addition, the “hERG IC20/TLR9 IC50” value in series [1] was 23.7. In series [2], the IC50 amounted to 0.32 µM.
In the case of `Cc1cc(N2CC[C@@H](c3ncc(N4C[C@H]5NCCO[C@@H]5C4)cc3C)[C@H](C)C2)c2cnn(C)c2n1` [Example 33, (4aR,7aR)-6-[6-[(3S,4R)-1-(1,6-dimethylpyrazolo[3,4-b]pyridin-4-yl)-3-methyl-4-piperidyl]-5-methyl-3-pyridyl]-3,4,4a,5,7,7a-hexahydro-2H-pyrrolo[3,4-b][1,4]oxazine], in series [1], the IC50 is greater than 10 µM, the IC20 came to 4.1 µM, the “hERG IC20/TLR7 IC50” value was found to be 372.7 and the “hERG IC20/TLR8 IC50” value was 1366.7. Besides, the “hERG IC20/TLR9 IC50” value in series [1] is recorded as 51.9. In addition, the IC50 in series [2] worked out at 0.146 µM.
As for `Cc1cc(N2CC[C@H](c3ccc(N4CCNCC4)cn3)[C@@H](C)C2)c2cnn(C)c2n1` [Example 35, 1,6-dimethyl-4-[(3R,4S)-3-methyl-4-(5-piperazin-1-yl-2-pyridyl)-1-piperidyl]pyrazolo[3,4-b]pyridine], in series [1], the IC50 is greater than 10 µM, the concentration for an effect of 20% (IC20) stood at 4.4 µM, the “hERG IC20/TLR7 IC50” value is recorded as 733.3 and the “hERG IC20/TLR8 IC50” value came to 488.9. For the same molecule, the “hERG IC20/TLR9 IC50” value in series [1] amounted to 27.8. Further, the IC50 in series [2] came out at 0.87 µM.
`Cc1cc(N2CC[C@H](c3ccc(N4CCOC[C@@H](N)C4)cn3)[C@@H](C)C2)c2cnn(C)c2n1` [Example 40, (6S)-4-[6-[(3R,4S)-1-(1,6-dimethylpyrazolo[3,4-b]pyridin-4-yl)-3-methyl-4-piperidyl]-3-pyridyl]-1,4-oxazepan-6-amine]: in series [1], the IC50 was greater than 20 µM, it took 5.9 µM to reach the 20% level (IC20), the “hERG IC20/TLR7 IC50” value is 655.6 and the “hERG IC20/TLR8 IC50” value is 842.9. Moreover, the “hERG IC20/TLR9 IC50” value in series [1] was 34.1. The IC50 in series [2] stood at 0.54 µM.
For the molecule `Cc1cc(N2CC[C@H](c3ccc(N4CC(C)(N)C4)cn3)[C@@H](C)C2)c2cnn(C)c2n1` [Example 43, 1-[6-[(3R,4S)-1-(1,6-dimethylpyrazolo[3,4-b]pyridin-4-yl)-3-methyl-4-piperidyl]-3-pyridyl]-3-methyl-azetidin-3-amine], in series [1], the IC50 is greater than 20 µM, the IC20 is greater than 10 µM, the “hERG IC20/TLR7 IC50” value is on record as greater than 625.0 and the “hERG IC20/TLR8 IC50” value is greater than 1666.7. Further, the “hERG IC20/TLR9 IC50” value in series [1] is listed as greater than 49.3. For the same molecule, the IC50 in series [2] was 0.47 µM.

(Values after US20240360126A1, “PYRAZOLO[3,4-B]PYRIDINE COMPOUNDS FOR THE TREATMENT OF AUTOIMMUNE DISEASE” (Hoffmann-La Roche Inc., priority 2021, published 2024).)
